From US9446091B2, “Caspofungin or salts thereof with high purity, as well as preparation method and use thereof” (Shanghai Techwell Biopharmaceutical Co., Ltd., priority 2011, dated 2016)

Test: Study on the stability of caspofungin with low solvent residue and hyposaline (storage, then HPLC purity)
Assay type: physicochemical
Conditions: for Purity: HPLC purity after storing at −25~−20° C. for 30 days; for Initial purity: HPLC purity before storage; for stability of the samples (degradation by HPLC analysis): stored at −25-20° C. for 30 days
Procedure: In the present invention, HPLC is used to determine the purity of caspofungin or salts thereof (the compound of formula 1 or salts thereof), and to investigate the stability of sample. Said HPLC is described as follows:
Chromatographic column: 4.6×250 mm, 5 μm C18 column;
Mobile phase: A: 0.1% aqueous perchloric acid and 0.075% aqueous sodium chloride; B: acetonitrile;
Flow rate: 1.0 ml/min; Injection volume: 10 μL;
Column temperature: 35° C.±5° C.; Detection wavelength: 220 nm; Running time: 60 mins;
Retention time of major peak: about 27 min;
The samples prepared in the above example 3, example 4, example 5, example 6, example 7, example 8 and example 9 were stored at −25-20° C. for 30 days. And then HPLC analysis was applied on these samples.

Row | Purity | Initial purity | stability of the samples (degradation by HPLC analysis) | SMILES
1 | 99.90% | 99.90% | no degradation occured | CCC(C)CC(C)CCCCCCCCC(=O)N[C@H]1C[C@@H](O)[C@@H](NCCN)NC(=O)[C@@H]2[C@@H](O)CCN2C(=O)[C@H]([C@H](O)CCN)NC(=O)[C@H]([C@H](O)[C@@H](O)c2ccc(O)cc2)NC(=O)[C@@H]2C[C@@H](O)CN2C(=O)[C@H]([C@@H](C)O)NC1=O (single isomer, unassigned) [Example 3, caspofungin diacetate]
2 | 99.90% | 99.90% | no degradation occured | CCC(C)CC(C)CCCCCCCCC(=O)N[C@H]1C[C@@H](O)[C@@H](NCCN)NC(=O)[C@@H]2[C@@H](O)CCN2C(=O)[C@H]([C@H](O)CCN)NC(=O)[C@H]([C@H](O)[C@@H](O)c2ccc(O)cc2)NC(=O)[C@@H]2C[C@@H](O)CN2C(=O)[C@H]([C@@H](C)O)NC1=O (single isomer, unassigned) [Example 4, caspofungin diacetate]
3 | 99.91% | 99.91% | no degradation occured | CCC(C)CC(C)CCCCCCCCC(=O)N[C@H]1C[C@@H](O)[C@@H](NCCN)NC(=O)[C@@H]2[C@@H](O)CCN2C(=O)[C@H]([C@H](O)CCN)NC(=O)[C@H]([C@H](O)[C@@H](O)c2ccc(O)cc2)NC(=O)[C@@H]2C[C@@H](O)CN2C(=O)[C@H]([C@@H](C)O)NC1=O (single isomer, unassigned) [Example 5, caspofungin diacetate]
4 | 99.92% | 99.92% | no degradation occured | CCC(C)CC(C)CCCCCCCCC(=O)N[C@H]1C[C@@H](O)[C@@H](NCCN)NC(=O)[C@@H]2[C@@H](O)CCN2C(=O)[C@H]([C@H](O)CCN)NC(=O)[C@H]([C@H](O)[C@@H](O)c2ccc(O)cc2)NC(=O)[C@@H]2C[C@@H](O)CN2C(=O)[C@H]([C@@H](C)O)NC1=O (single isomer, unassigned) [Example 6, caspofungin diacetate]
5 | 99.90% | 99.90% | no degradation occured | CCC(C)CC(C)CCCCCCCCC(=O)N[C@H]1C[C@@H](O)[C@@H](NCCN)NC(=O)[C@@H]2[C@@H](O)CCN2C(=O)[C@H]([C@H](O)CCN)NC(=O)[C@H]([C@H](O)[C@@H](O)c2ccc(O)cc2)NC(=O)[C@@H]2C[C@@H](O)CN2C(=O)[C@H]([C@@H](C)O)NC1=O (single isomer, unassigned) [Example 7, caspofungin diacetate]
6 | 99.88% | 99.88% | no degradation occured | CCC(C)CC(C)CCCCCCCCC(=O)N[C@H]1C[C@@H](O)[C@@H](NCCN)NC(=O)[C@@H]2[C@@H](O)CCN2C(=O)[C@H]([C@H](O)CCN)NC(=O)[C@H]([C@H](O)[C@@H](O)c2ccc(O)cc2)NC(=O)[C@@H]2C[C@@H](O)CN2C(=O)[C@H]([C@@H](C)O)NC1=O (single isomer, unassigned) [Example 8, caspofungin diacetate]
7 | 99.86% | 99.86% | no degradation occured | CCC(C)CC(C)CCCCCCCCC(=O)N[C@H]1C[C@@H](O)[C@@H](NCCN)NC(=O)[C@@H]2[C@@H](O)CCN2C(=O)[C@H]([C@H](O)CCN)NC(=O)[C@H]([C@H](O)[C@@H](O)c2ccc(O)cc2)NC(=O)[C@@H]2C[C@@H](O)CN2C(=O)[C@H]([C@@H](C)O)NC1=O (single isomer, unassigned) [Example 9, caspofungin diacetate]
